Blank lines part the entries; values can stand above or below the molecule they belong to. Where a SMILES comes first, the peptide text is derived from it. The star is where a group is joined. AMC = Cc1cc(=O)oc2cc(N*)ccc12; Boc = CC(C)(C)OC(=O)*
Tests used:
Assay type in all cases: biochemical
[1] = molecular target: T1, staphylocoagulase-thrombin (Homo sapiens, UniProt P00734); test: Conversion of a substrate concentration series by staphylocoagulase-thrombin in 1:2 diluted normal plasma on filter paper
T1 construct: Antithrombin-resistant thrombin activity can also be obtained reacting prothrombin with the protein staphylocoagulase; made in house
Description: Surface fluorescence in plasma and in whole blood has been essentially measured in the same way as published by Ninnivagi and Apitz for whole blood (Ninivaggi M, Apitz-Castro R, Dargaud Y, de Laat B, Hemker HC, Lindhout T. Whole blood thrombin generation monitored with a calibrated automated thrombogram-based assay. Clin.Chem. 2012,58:1252-1259) or in WO2006/117246. Paper discs of 5.5 mm diameter and 180 µm thickness (Whatman 589/1, Whatman GmbH, Dassel, Germany) were placed in flat bottom wells of a 96-wells polystyrene microplate (Thermo Electron Corporation, Milford, MA, USA).
• A. Preparation of paper matrices and placement into a flat-bottom 96 wells plate • B. Addition of the fluorogenic substrate solution to the plasma or to whole blood • C. Pre-heating of the reagents and whole blood for 2 min at 37°C • D. Mixing of the whole blood and the trigger mix or calibrator 1:1 • E. Pipetting 5 µL reaction mix onto the paper matrix • F. Pipetting 40 µL of mineral oil onto the paper matrix • G. Immediate measurement of fluorescence in time (exc 485 nm / em 538 nm)
In 1:2 diluted normal plasma adsorbed on filter paper a concentration series of mPEG-Gly-Pro-Arg-RhoAc (75, 150, 225, 300, 450 and 600 µM) was converted by 100 nM of staphylocoagulase-thrombin and the resulting fluorescence recorded as further described under materials and methods. […]

[2] = molecular target: T2, plasmin-α2-macroglobulin complex (Homo sapiens, UniProt P00747); test: Plasmin generation experiment on paper, calibrator curve with plasmin-α2-macroglobulin complex; details: substrate 300 µM with 8 µM AMC added, constant E 100 nM
T2 construct: thrombin and plasmin can be reacted with the plasma-derived protein α2-macroglobulin; made in house
Description: Stock solutions: SC-FII, prepared in house 1µM; Plasmin-α2macroglobulin complex, prepared in house 1 µM; rec Human recombinant tissue factor (TF) (Innovin; Siemens) 6µM. Phospholipids (PS:PC:PE, 2:6:2) prepared in house 1 mM, Human recombinant tissue plasminogen activator (tPA), (Alteplase Boehringer Ingelheim) 36 klU, Final concentrations used: SC-FII, 100 nM, Plasmin-α2macroglobulin 100 nM: tPA 300 IU. Substrate 300 µM,
To 40 µL of plasma was added 20 µL of the substrate solution (1,35 mM in BSA 60 buffer) so as to obtain a concentration of 450 µM.
To 40 µL of this mixture were added 20 µL of the activation mixture containing the indicated concentration of Ca^++, TF, PI, tPA in BSA 5 buffer. 5 µL of this of this solution was transferred to three 6 mm diameter paper rounds at the (flat) bottom of a 96-well plate. […] The plate was read in a Fluoroscan Ascent fluorometer at 37°C. Samples were measured every 10s at 390-460 nm for 50 minutes.
A plasmin generation experiment was carried out as described in the methods section with Boc-Glu-Lys-Lys-AMC (300 µM) as a substrate to which 8 µM AMC was added. […] We simultaneously recorded a fluorescence curve from plasmin-α2-macroglobulin complex, equivalent to 100 nM plasmin. From this curve, run to completion we found Fmax to be 1778 AU, whereas F0 as measured during the lag-times, was 49,2 AUs.

thrombin = molecular target: T3, thrombin (Homo sapiens, UniProt P00734); test: Standard thrombin generation experiment in plasma, ratio method (kinetic constants of substrate conversion); details: substrate at 108 and 416 µM with 1 µM AMC added, 5 pM tissue factor, 37°C
T3 construct: from tissue; host or cells: plasma
Description: Plasma in solution: The TG experiments in the examples are variations on the standard experiment in which thrombin generation in plasma is measured in a 96-wells polystyrene microplate (Thermo Electron Corporation, Milford, MA, USA). All wells contained 80 µl plasma and 20 µl of a solution containing 0.5 - 5 pM tissue factor (TF) and 4 µM phospholipids (PL). To calibrator wells, 20 µl of calibrator was added instead so as to obtain the equivalent of 100 nM thrombin activity. Thrombin generation (TG) was initiated by the addition of 20 µl of substrate (standard: Z-Gly-Gly-Arg-AMC, 417 µM) and CaCl2 (16.6 mM).
• A. Addition of 80 µl plasma to each well • B. Addition of 20 µl TF/phospholipids mix or 20 µl calibrator to each well • C. Pre-heating of the plate for 10 min at 37°C • D. Addition of 20 µl FluCa kept at 37°C prior to the addition of the reaction mixture. • E. Immediate kinetic measurement of fluorescence in time (exc 390 nm / em 460 nm)
A standard thrombin generation experiment with 5 pM tissue factor was carried out, using Z-Gly-Gly-Arg-AMC as a substrate at the concentrations 108- and 416 bµM with 1µM of AMC added. Fom the fluorescence data the normalized ratio was calculated as Rt=(Fexp.t-F0)/(Fmax-F0) (dashed lines).

T2 sequence (P00747 581-810 limits assumed): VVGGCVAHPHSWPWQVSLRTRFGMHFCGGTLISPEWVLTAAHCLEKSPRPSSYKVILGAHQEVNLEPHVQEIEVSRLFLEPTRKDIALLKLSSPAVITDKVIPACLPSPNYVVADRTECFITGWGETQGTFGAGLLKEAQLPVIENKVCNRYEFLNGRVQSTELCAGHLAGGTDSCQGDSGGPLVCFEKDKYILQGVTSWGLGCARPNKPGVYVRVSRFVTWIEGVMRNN
T2 sequence (P00747 97-580 limits assumed): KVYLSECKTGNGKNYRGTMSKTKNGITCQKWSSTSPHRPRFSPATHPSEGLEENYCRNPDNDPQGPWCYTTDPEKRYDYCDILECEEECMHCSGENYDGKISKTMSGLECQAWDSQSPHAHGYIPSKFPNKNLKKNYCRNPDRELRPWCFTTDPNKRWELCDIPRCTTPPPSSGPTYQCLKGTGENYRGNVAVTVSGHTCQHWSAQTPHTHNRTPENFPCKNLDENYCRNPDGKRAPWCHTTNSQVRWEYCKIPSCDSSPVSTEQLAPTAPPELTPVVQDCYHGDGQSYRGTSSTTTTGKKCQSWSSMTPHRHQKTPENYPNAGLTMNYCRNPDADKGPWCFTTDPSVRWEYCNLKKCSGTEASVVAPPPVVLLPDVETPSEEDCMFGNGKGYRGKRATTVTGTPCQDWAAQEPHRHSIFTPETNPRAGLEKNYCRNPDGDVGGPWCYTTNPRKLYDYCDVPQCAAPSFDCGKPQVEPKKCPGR
T2 sequence (P01023 24-1474 partner): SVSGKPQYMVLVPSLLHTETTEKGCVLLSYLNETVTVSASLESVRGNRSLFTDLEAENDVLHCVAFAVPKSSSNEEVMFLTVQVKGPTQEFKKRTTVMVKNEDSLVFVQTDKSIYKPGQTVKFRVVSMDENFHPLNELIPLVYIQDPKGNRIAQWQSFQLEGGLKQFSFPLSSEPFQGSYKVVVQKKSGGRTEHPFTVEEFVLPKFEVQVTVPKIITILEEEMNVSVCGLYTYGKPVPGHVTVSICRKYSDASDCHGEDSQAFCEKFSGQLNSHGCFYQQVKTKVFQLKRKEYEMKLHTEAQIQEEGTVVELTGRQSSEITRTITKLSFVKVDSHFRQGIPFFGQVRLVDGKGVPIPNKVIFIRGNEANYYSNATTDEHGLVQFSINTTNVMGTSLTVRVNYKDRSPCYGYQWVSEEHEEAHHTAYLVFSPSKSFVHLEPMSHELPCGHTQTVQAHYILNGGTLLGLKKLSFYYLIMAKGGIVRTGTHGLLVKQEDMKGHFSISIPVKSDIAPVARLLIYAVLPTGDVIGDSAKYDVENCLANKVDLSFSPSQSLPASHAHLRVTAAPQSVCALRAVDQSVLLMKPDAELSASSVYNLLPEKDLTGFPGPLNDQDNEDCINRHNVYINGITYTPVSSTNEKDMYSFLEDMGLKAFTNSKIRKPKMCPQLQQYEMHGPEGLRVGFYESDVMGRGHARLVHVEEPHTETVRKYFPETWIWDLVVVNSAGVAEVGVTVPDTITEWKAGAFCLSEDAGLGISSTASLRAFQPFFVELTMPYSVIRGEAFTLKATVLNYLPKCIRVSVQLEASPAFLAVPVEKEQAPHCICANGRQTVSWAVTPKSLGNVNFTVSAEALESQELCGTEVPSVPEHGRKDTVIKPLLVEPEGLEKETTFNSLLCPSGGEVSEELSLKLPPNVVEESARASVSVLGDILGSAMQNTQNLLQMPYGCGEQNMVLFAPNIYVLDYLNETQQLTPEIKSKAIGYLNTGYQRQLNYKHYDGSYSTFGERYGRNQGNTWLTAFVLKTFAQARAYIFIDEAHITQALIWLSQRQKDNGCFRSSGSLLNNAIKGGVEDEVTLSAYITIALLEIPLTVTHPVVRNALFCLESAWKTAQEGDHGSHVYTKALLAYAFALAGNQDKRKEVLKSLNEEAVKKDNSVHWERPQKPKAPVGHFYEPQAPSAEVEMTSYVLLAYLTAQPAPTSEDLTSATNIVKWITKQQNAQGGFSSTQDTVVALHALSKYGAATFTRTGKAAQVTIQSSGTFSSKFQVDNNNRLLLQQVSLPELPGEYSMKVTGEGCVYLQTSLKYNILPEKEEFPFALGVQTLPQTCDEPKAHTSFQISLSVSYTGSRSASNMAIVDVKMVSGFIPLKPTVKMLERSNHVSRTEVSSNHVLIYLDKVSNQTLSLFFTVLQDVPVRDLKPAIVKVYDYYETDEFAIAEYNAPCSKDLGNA

Molecule: mPEG-Gly-Pro-Arg-RhoAc
Km/kcat ([1]; enzyme concentration 100 nM, any substrate concentration ≤ 600 µM): 11,36 µM.min
Km ([1]; substrate 75-600 µM, 100 nM staphylocoagulase-thrombin, inferred from reaction velocity proportional to substrate concentration): > 600 µM

Km/kcat [2]: 8660 nM·min
Molecule: Cc1cc(=O)oc2cc(NC(=O)[C@H](CCCCN)NC(=O)[C@H](CCCCN)NC(=O)[C@H](CCC(=O)O)NC(=O)OC(C)(C)C)ccc12 [Boc-Glu-Lys-Lys-AMC, ButylOxyCarbonyl-Glu-Lys-Lys-AMC] (Boc-Glu-Lys-Lys-{AMC})

Km (thrombin): 900 µM
kcat (thrombin): 1.9 s⁻¹
Molecule: Cc1cc(=O)oc2cc(NC(=O)C(CCCNC(=N)N)NC(=O)CNC(=O)CNC(=O)OCc3ccccc3)ccc12 (stereo not drawn) [Z-Gly-Gly-Arg-AMC]

Source: patent publication EP3363912B1, “SELF-CALIBRATED ASSAY FOR DETERMINING PROTEOLYTIC ENZYME GENERATION, DEDICATED MEANS AND USES THEREOF” (Synapse B.V., priority 2017, dated 2018)
